How the values were obtained:
[1] = system: wild-type zebrafish larvae; experiment: Behavioral assay: light-induced motion response of wild-type larvae; type: in vivo, Zebrafish (Danio rerio); settings: 3 dpf wild-type larvae, 1 s flashes WL1-WL4
Method: A total of 1,000 compounds were selected from the ChemBridge Corp. catalog. Compounds were dissolved in DMSO at a stock concentration of 1 μg/μL (˜1.5 mM). The library was screened at a 1:100 dilution in E3 solution for a final concentration of ˜15 μM. Negative controls were treated with an equal volume of DMSO. Groups of 3 larvae at 3 days post fertilization (dpf) were distributed into the wells of 96-well clear bottom black microplates (07-200-567; Fisher Scientific) in 150 μL E3 before the addition of small molecules. Stock solutions of compounds were added directly to zebrafish in the wells of a 96 well plate (Corning 3631), mixed, and allowed to incubate for 1 h in the dark at 28.5° C. prior to behavioral evaluation in the behavioral assay. Ordering information: 1 (5533696; ChemBridge); 3 (5538408; ChemBridge).
Larvae in each of the wells were exposed to four 1 second flashes of light stimulus in the following order: 450-500 nm (WL1), 415-455 nm (WL2), 352-402 nm (WL3), white light (WL4), with a 5 second inter-stimulus interval. Digital video recording was performed for 5 seconds before the first light stimuli and continued throughout the stimulation sequence. Band pass filters (Semrock FF02-475/50, FF02-435/40, FF01-377/50) were used to restrict the excitation light to the indicated wavelengths. […] 290 frames of digital video were recorded per well at 10 FPS using an EMCCD camera (C9100; Hamamatsu) mounted on an inverted compound microscope (AxioObserver A1; Zeiss) with a NA 0.03 1.25× objective and a barrier with a 0.7 mm diameter opening to restrict light scattering to the sample. MetaMorph software (Molecular Devices) was used to control the execution of TTL signals and camera capture using the built-in stream acquisition with trigger function. Each video was saved for review. Light stimuli were generated with an ozone free 300-Watt xenon bulb housed in a Lambda LS illuminator (Sutter Instruments). A dichroic mirror (T510LPXRXT; Chroma) was used for appropriate excitation of samples and bright field acquisition. Schott longpass absorption glass (RG610; Chroma) was added in the transmitted light path to reduce unwanted excitation to the well and to provide sufficient light for video recording. All behavioral experiments were conducted at room temperature. […]
To analyze digital video recordings, custom MetaMorph software scripts were used to automatically threshold the video to identify the area of larvae in each frame. Threshold images of the frames after each light activation event were overlaid to calculate a new combined threshold area. The motion index was calculated as the percentage change between the threshold area in the frame right before light activation and the new combined threshold area. This motion index correlates with the overall amount of motion in the well.

[2] = Photostationary state (PSS) determination; type: physicochemical; settings: estimated, UV/Vis spectroscopy in DMSO
Source text: […] In the latter case, the pure Z isomer spectrum was estimated using methods described in previous publications.

SMILES	light-induced motion response (in vivo activity) [1]	365 nm PSS [2] [% E]	420 nm PSS [2] [% E]	495 nm PSS [2] [% E]
O=C(Nc1ccccc1/N=N/c1ccccc1)c1ccco1 [Compound 2, (E)-N-(2-(phenyldiazenyl)phenyl)furan-2-carboxamide]	reduced activity	13	56	79
O=C(Nc1ccc(/N=N/c2ccccc2)c(NC(=O)c2cccs2)c1)c1cccs1 [Compound 3, (E)-N,N′-(4-(phenyldiazenyl)-1,3-phenylene)bis(thiophene-2-carboxamide)]	slightly lower photoresponse	22	38	76
N#Cc1ccc(/N=N/c2ccc(NC(=O)c3ccco3)cc2NC(=O)c2ccco2)cc1 [Compound 4, (E)-N,N′-(4-((4-cyanophenyl)diazenyl)-1,3-phenylene)bis(furan-2-carboxamide)]	far less active	47	32	61
N#Cc1ccc(/N=N/c2ccc(NC(=O)c3cccs3)cc2NC(=O)c2cccs2)cc1 [Compound 5, (E)-N,N′-(4-((4-cyanophenyl)diazenyl)-1,3-phenylene)bis(thiophene-2-carboxamide)]	far less active	41	30	61
O=C(Nc1ccc(/N=N/c2ccc([N+](=O)[O-])cc2)c(NC(=O)c2ccco2)c1)c1ccco1 [Compound 6, (E)-N,N′-(4-((4-nitrophenyl)diazenyl)-1,3-phenylene)bis(furan-2-carboxamide)]	far less active	66	42	64
O=C(Nc1ccc(/N=N/c2ccc([N+](=O)[O-])cc2)c(NC(=O)c2cccs2)c1)c1cccs1 [Compound 7, (E)-N,N′-(4-((4-nitrophenyl)diazenyl)-1,3-phenylene)bis(thiophene-2-carboxamide)]	far less active	69	46	70

Source: US20220280644A1, “"TRPswitch" - A STEP FUNCTION CHEMO-OPTOGENETIC LIGAND” (UNIVERSITY OF UTAH RESEARCH FOUNDATION, priority 2019, published 2022)
